Results: PMC3004914, “Classification of Drugs Based on Properties of Sodium Channel Inhibition: A Comparative Automated Patch-Clamp Study” (PLoS ONE, 2010)
pKd, pKi: −log10 of the molar value. Where two headings read alike, the source gives them in different places. Blank lines part the entries; values can stand above or below the compound they belong to.

Assays:
[1] = target: T1, rNav1.2 sodium channels (HEK-293 cells) (Rattus norvegicus, UniProt P04775); assay: steady-state inactivation protocol (availability curves), QPatch automated patch-clamp; format: cell-based
Source text: (§1) A)–D) Peak amplitudes of evoked currents (5 Hz trains of 5 depolarizations from −90 to −10 mV) are plotted against time. Black dots: Control. Grey dots: Drug perfusion. […] Calculation of properties of inhibition is illustrated. […] E) Calculation of Kr and Ki values from steady-state availability curves.
Standard steady-state inactivation protocols were used to measure the shift of steady-state availability curve caused by the drugs. Currents were evoked by a 10 ms test pulse to −10 mV, preceded by 400 ms pre-pulses from −150 to −30 mV. […] Because the inhibition at hyperpolarized potentials (Inh−150), and the shift of the availability curves (ΔV1/2) are both concentration-dependent properties, we calculated affinities to hyperpolarized and depolarized states (“resting state affinity”: Kr, and “inactivated state affinity”: Ki), which, on the other hand, are concentration-independent characteristics of individual drugs. Calculation of Kr and Ki values are described in Materials and Methods, and illustrated in Figure 1E. State-dependence (SD) was quantified as the ratio Kr/Ki.
(§2) HEK-293 cells stably expressing rNav1.2 sodium channels were obtained from NeuroSearch (Ballerup, Denmark).
(§3) Cells were automatically prepared for application to the chips (centrifuged and washed twice, then resuspended in extracellular solution) as described previously. Composition of the extracellular solution was: (in mM): 140 NaCl, 3 KCl, 1 CaCl2, 1 MgCl2, 0.1 CdCl2, 20 TEA-Cl, 5 HEPES, adjusted to pH 7.3, Osmolality: ∼320 mOsm.
(§4) All electrophysiological experiments were conducted on Qpatch-16 or QPatch HT instruments using QPlate™ chips. For a detailed description of the instrument and the patch-clamp chips see [37], [38]. Data were sampled at a frequency of 25 kHz and filtered at 5 kHz. […] The amplifier was controlled and the data were collected by the Sophion QPatch client software. For initial data analysis the QPatch software was used. Built-in amplifiers provide an improved method for series resistance compensation. Leak subtraction (based on a standard P/n protocol) was used to subtract the capacitive component of currents.
Inactivated affinity (Ki) values were calculated assuming a simple four-state model of drug binding and channel gating, using two separate methods: (1) from the shift of the availability curve (ΔV1/2), the slope of the Boltzmann fit of the availability curve (k) and Kr, using the formula described by Bean, Cohen and Tsien (Ki−ΔV1/2; see Figure 1E), or (2) from the apparent affinity (Kapp) at a certain pre-pulse potential, which was calculated from the inhibition (e.g. Inh−60) as described above, and the availability (h) at the same pre-pulse potential, using the formula from Kuo and Bean (Figure 1E). […] (Arithmetic means and SEM values are given in Results S7.)

sodium channels = conditions: cited from earlier work; for pKi: read-out: Ki−Lit; for pKd: read-out: Kr−Lit
[2] = target: T1, rNav1.2 sodium channels (HEK-293 cells); assay: 5 Hz train protocol, QPatch automated patch-clamp; format: cell-based; conditions: for Rev (reversibility): Rev = A5/A1 after washout; for potency estimated from few doses: −90 mV;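 for UD (use-dependence of the inhibition): UD = (A3/A4)/(A1/A2) as ratios of peak amplitudes from Figure 1A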
Source text: The dynamics of the onset and offset of inhibition was monitored using 5 Hz trains of five depolarizing pulses from a holding potential of −90 mV to −10 mV. The trains were repeated every 20 s. Drugs were applied after 10 control trains and 10 trains were delivered in the presence of the drug. The drug was then washed out, and the 10 trains were repeated.
We measured inhibition (Inh; from which we calculated IC50 values as described in Materials and Methods), reversibility of inhibition (Rev) and use-dependence (UD), as well as time constant of onset (τon) and offset (τoff). The calculation of IC50, quantification of Rev and UD, and the determination of time constants are illustrated in Figure 1A. Because τon should be concentration-dependent if we assume a single binding reaction, we excluded it from the analyses. […] Comments on the interpretation of these properties (Rev, […] and UD) are in Results S1.
as §1, §2, §3, §4
From this protocol we extracted five parameters, as illustrated in Figure 1A. We calculated inhibition of a single “cc” concentration: Inh = (amplitudectr – amplitudedrug)/amplitudectr.

[3] = human plasma, cited from earlier work
[4] = 100 μM, 500 s assigned where irreversible

T1 sequence (P04775 whole entry, the tested form may be a part): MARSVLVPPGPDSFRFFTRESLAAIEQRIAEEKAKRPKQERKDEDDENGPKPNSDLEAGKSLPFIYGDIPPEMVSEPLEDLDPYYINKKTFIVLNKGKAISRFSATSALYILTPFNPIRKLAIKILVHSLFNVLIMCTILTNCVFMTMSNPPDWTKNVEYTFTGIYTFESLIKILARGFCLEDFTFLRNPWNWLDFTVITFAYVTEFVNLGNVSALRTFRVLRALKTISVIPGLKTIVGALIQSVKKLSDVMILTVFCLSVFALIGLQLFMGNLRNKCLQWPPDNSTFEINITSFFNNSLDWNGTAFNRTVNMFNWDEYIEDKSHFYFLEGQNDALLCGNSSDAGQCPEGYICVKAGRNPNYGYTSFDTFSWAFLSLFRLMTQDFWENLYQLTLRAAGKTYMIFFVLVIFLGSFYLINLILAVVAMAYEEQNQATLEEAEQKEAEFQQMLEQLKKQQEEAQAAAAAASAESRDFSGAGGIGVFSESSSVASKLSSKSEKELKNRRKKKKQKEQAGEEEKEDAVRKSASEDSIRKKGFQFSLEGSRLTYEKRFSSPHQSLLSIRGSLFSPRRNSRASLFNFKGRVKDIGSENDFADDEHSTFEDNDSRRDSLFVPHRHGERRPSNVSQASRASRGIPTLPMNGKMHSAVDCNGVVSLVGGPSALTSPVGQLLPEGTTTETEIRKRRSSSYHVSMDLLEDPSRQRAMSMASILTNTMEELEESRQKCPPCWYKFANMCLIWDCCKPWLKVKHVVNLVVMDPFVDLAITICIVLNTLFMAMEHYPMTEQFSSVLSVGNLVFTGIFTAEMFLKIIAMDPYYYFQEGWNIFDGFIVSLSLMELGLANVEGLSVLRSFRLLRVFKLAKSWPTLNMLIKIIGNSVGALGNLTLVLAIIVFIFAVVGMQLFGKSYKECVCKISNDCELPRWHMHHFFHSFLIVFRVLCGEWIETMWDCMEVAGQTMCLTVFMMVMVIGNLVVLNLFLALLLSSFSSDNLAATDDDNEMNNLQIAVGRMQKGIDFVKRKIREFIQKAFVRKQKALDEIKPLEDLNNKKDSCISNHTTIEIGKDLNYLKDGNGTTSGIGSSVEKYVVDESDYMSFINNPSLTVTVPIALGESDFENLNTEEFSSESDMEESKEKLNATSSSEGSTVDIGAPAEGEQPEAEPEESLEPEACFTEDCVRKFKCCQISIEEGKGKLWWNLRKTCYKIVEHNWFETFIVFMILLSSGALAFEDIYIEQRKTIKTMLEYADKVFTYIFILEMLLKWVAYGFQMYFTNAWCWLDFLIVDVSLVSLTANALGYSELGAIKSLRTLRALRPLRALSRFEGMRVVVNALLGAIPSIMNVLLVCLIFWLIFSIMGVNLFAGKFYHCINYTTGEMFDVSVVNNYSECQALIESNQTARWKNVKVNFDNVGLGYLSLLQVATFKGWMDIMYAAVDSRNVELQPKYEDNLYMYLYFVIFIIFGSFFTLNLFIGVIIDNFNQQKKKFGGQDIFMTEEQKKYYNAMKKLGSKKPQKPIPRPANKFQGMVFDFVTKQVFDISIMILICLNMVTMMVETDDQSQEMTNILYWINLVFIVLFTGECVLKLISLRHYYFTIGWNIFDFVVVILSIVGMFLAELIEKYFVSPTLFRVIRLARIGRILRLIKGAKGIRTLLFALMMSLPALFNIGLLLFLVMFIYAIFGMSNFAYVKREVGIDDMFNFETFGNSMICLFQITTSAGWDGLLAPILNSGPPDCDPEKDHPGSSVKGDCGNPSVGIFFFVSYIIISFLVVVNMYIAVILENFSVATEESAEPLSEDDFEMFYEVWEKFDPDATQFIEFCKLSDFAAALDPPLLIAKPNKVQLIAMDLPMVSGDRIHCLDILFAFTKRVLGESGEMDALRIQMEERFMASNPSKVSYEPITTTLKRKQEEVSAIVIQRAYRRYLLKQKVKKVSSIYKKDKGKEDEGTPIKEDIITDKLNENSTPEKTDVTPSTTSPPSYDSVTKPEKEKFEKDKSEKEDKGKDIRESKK

inhibition at 300 µM ([1]; HEK293, 300 µM, read-out: Inh (inhibited fraction) at holding potential −150 mV): 82%
pKi ([1]; arithmetic mean, 300 µM, read-out: Ki-Kapp arith): 5.21
pKi ([1]; arithmetic mean, 300 µM, read-out: Ki-ΔV1/2 arith): 5.01
pKd ([1]; arithmetic mean, 300 µM, read-out: Kr arith): 4.19
pKd ([1]; geometric mean, from Inh at −150 mV, 300 µM, read-out: Kr (resting state affinity)): 4.19
pKi ([1]; geometric mean, from apparent affinity, 300 µM, read-out: Ki−Kapp (inactivated state affinity)): 5.24
pKi ([1]; geometric mean, from shift of availability curve, 300 µM, read-out: Ki−ΔV1/2 (inactivated state affinity)): 5.10
Kr ([1]; in words): low Kr
difference between Kr and IC50 [2]: no difference
τoff ([2]; 300 μM): 64.97 s
τon ([2]; 300 μM, 3 s assigned where too short to be resolved): 20.04 s
UD (use-dependence of the inhibition) ([2]; 300 μM, 5 Hz train): 1.34
Rev (reversibility) ([2]; 300 μM): 0.57
use-dependence (UD) ([2]; 5 Hz train): high
inhibition at 300 µM ([2]; HEK293, 300 μM, −90 mV holding potential, 5 Hz train, read-out: Inh (inhibited fraction)): 82%
potency estimated from few doses ([2]; HEK293, calculated from Inh at single concentration 300 μM, 5 Hz train, read-out: IC50): 67.6 µM
SMILES: O=C(NCC1CCCCN1)c1cc(OCC(F)(F)F)ccc1OCC(F)(F)F (stereo not drawn) [FLC, Flecainide]
pKi (sodium channels; averaged literature data): 5.26
pKd (sodium channels; averaged literature data): 3.45

ΔV1/2 (shift of availability curve) ([1]; 100 μM): −11.3 mV
inhibition at 100 µM ([1]; HEK293, 100 µM, read-out: Inh (inhibited fraction) at holding potential −150 mV): 14%
pKi ([1]; arithmetic mean, 100 µM, read-out: Ki-Kapp arith): 5.09
pKi ([1]; arithmetic mean, 100 µM, read-out: Ki-ΔV1/2 arith): 5.19
pKd ([1]; arithmetic mean, 100 µM, read-out: Kr arith): 3.20
pKd ([1]; geometric mean, from Inh at −150 mV, 100 µM, read-out: Kr (resting state affinity)): 3.21
pKi ([1]; geometric mean, from apparent affinity, 100 µM, read-out: Ki−Kapp (inactivated state affinity)): 5.11
pKi ([1]; geometric mean, from shift of availability curve, 100 µM, read-out: Ki−ΔV1/2 (inactivated state affinity)): 5.23
τon ([2]; 100 μM): 7.95 s
UD (use-dependence of the inhibition) ([2]; 100 μM, 5 Hz train): 1.62
τoff [2, 4]: 16.73 s
Rev (reversibility) ([2]; 100 μM): 0.75
use-dependence (UD) ([2]; 5 Hz train): high use-dependence
inhibition at 100 µM ([2]; HEK293, 100 μM, −90 mV holding potential, 5 Hz train, read-out: Inh (inhibited fraction)): 60%
potency estimated from few doses ([2]; HEK293, calculated from Inh at single concentration 100 μM, 5 Hz train, read-out: IC50): 67.7 µM
SMILES: CCCCN1CCCCC1C(=O)Nc1c(C)cccc1C (stereo not drawn) [BPV, Bupivacaine]
plasma conc. ([3]; as printed in each cell): 0.8 [44] µg/ml
plasma conc. ([3]; as printed in the µg/ml cell): 2.462 µM
pKi (sodium channels; averaged literature data): 4.70
pKd (sodium channels; averaged literature data): 3.54

SMILES: COc1ccc(C(CN(C)C)C2(O)CCCCC2)cc1 (stereo not drawn) [VFX, Venlafaxine]
ΔV1/2 (shift of availability curve) ([1]; 100 μM): −4.66 mV
inhibition at 100 µM ([1]; HEK293, read-out: Inh (inhibited fraction) at holding potential −150 mV): 11%
pKi ([1]; Ki-Kapp arith, arithmetic mean, 100 µM): 4.14
pKi ([1]; Ki-ΔV1/2 arith, arithmetic mean, 100 µM): 4.12
pKi ([1]; Ki−Kapp (inactivated state affinity), geometric mean, from apparent affinity, 100 µM): 4.20
pKi ([1]; Ki−ΔV1/2 (inactivated state affinity), geometric mean, from shift of availability curve, 100 µM): 4.23
pKd ([1]; Kr (resting state affinity), geometric mean, from Inh at −150 mV, 100 µM): 3.05
pKd ([1]; Kr arith, arithmetic mean, 100 µM): 3.00
plasma conc. ([3]; as printed in each cell): 0.17 [44] µg/ml
plasma conc. ([3]; as printed in the µg/ml cell): 0.532 µM
pKi (sodium channels; averaged literature data): 6.19
pKd (sodium channels): 5.10
τon ([2]; 100 μM): 4.85 s
UD (use-dependence of the inhibition) ([2]; 100 μM, 5 Hz train): 1.05
τoff [2, 4]: 5.2 s
Rev (reversibility) ([2]; 100 μM): 0.89
potency estimated from few doses ([2]; HEK293, read-out: IC50, calculated from Inh at single concentration 100 μM, 5 Hz train): 727 µM
inhibition at 100 µM ([2]; HEK293, read-out: Inh (inhibited fraction)): 12%

ΔV1/2 (shift of availability curve) ([1]; 30 μM): −11.4 mV
inhibition at 30 µM ([1]; HEK293, 30 µM, read-out: Inh (inhibited fraction) at holding potential −150 mV): 55%
pKi ([1]; arithmetic mean, 30 µM, read-out: Ki-Kapp arith): 5.79
pKi ([1]; arithmetic mean, 30 µM, read-out: Ki-ΔV1/2 arith): 5.05
pKd ([1]; arithmetic mean, 30 µM, read-out: Kr arith): 4.49
pKd ([1]; geometric mean, from Inh at −150 mV, 30 µM, read-out: Kr (resting state affinity)): 4.62
pKi ([1]; geometric mean, from apparent affinity, 30 µM, read-out: Ki−Kapp (inactivated state affinity)): 6.14
pKi ([1]; geometric mean, from shift of availability curve, 30 µM, read-out: Ki−ΔV1/2 (inactivated state affinity)): 5.70
τon ([2]; 30 μM): 32.07 s
UD (use-dependence of the inhibition) ([2]; 30 μM, 5 Hz train): 1.46
τoff ([2]; 30 μM, 500 s assigned where irreversible): 35.99 s
Rev (reversibility) ([2]; 30 μM): 0.34
inhibition at 30 µM ([2]; HEK293, 30 μM, −90 mV holding potential, 5 Hz train, read-out: Inh (inhibited fraction)): 65%
potency estimated from few doses ([2]; HEK293, calculated from Inh at single concentration 30 μM, 5 Hz train, read-out: IC50): 16.2 µM
SMILES: Fc1ccc([C@@H]2CCNC[C@H]2COc2ccc3c(c2)OCO3)cc1 [PRX, Paroxetine]
plasma conc. ([3]; as printed in each cell): 0.38 [44] µg/ml
pKi (sodium channels; averaged literature data): 5.84
pKd (sodium channels; averaged literature data): 4.77
